Source: article PMC13266999, “Designing Antibiotics with Inherent Resistance to Efflux as a Strategy to Revive Discovery against Multidrug-Resistant Pathogens” (Journal of Medicinal Chemistry, 2026)
Converted amounts (≈) assume the structure as drawn. “And” between values parts separate entries of the source, which are not always exact repeats. Equal entries are not always repeated. Where two headings read alike, the source gives them in different places.

Experiments:
[1] = tested on: E. faecalis; assay: MIC (microbroth dilution); type: cell-based, Enterococcus faecalis
Description: (§1) All bacteria were maintained on tryptic soy agar (TSA), except Streptococcus spp., which were maintained on Columbia agar plates containing 5% horse blood. […] Bacteria were grown to stationary phase in liquid culture overnight, with shaking at 200 rpm, before being back diluted to the relevant starting concentration for each assay below. MICs were measured by the microbroth dilution method. […] Absorbance at OD600 was read on a CLARIOstar spectrophotometer (BMG Labtech) and the MIC was defined as the minimum concentration of compound where no visible growth was detected. […] MICs were also performed in the presence of the outer membrane permeator, polymyxin b nonapeptide (PMBN) following the same MIC method but with the following variation. The 2-fold dilution series of compound was prepared as above, then 50 μL of PMBN at a final concentration of 30 μg/mL was added to relevant wells, while 50 μL/well of blank media was added to the remaining wells. Bacteria were then added at 50 μL/well for a starting concentration as above. […] The MICs were read and defined as above. All animal procedures were performed by the contract research organization Pharmacology Discovery Services Taiwan in accordance with the Guide for the Care and Use of Laboratory Animals. The procedures were approved by the Institutional Ethics Committee of Pharmacology Discovery Services Taiwan, Ltd. (approval no. AB127662), in compliance with animal welfare legislation in Taiwan.

[2] = tested on: E. faecium; assay: MIC (microbroth dilution); type: cell-based, Enterococcus faecium
Description: (§2) All bacteria were maintained on tryptic soy agar (TSA), except Streptococcus spp., which were maintained on Columbia agar plates containing 5% horse blood. All bacterial assays were carried out in tryptic soy broth (TSB), except for Streptococcus spp. which were grown in cation-adjusted Mueller Hinton broth containing 2.5% lysed horse blood. Bacteria were grown to stationary phase in liquid culture overnight, with shaking at 200 rpm, before being back diluted to the relevant starting concentration for each assay below. MICs were measured by the microbroth dilution method. […] Absorbance at OD600 was read on a CLARIOstar spectrophotometer (BMG Labtech) and the MIC was defined as the minimum concentration of compound where no visible growth was detected. The compounds were prepared as a DMSO stock and equivalent concentrations of DMSO had no effect on bacterial growth. MICs were also performed in the presence of the outer membrane permeator, polymyxin b nonapeptide (PMBN) following the same MIC method but with the following variation. The 2-fold dilution series of compound was prepared as above, then 50 μL of PMBN at a final concentration of 30 μg/mL was added to relevant wells, while 50 μL/well of blank media was added to the remaining wells. Bacteria were then added at 50 μL/well for a starting concentration as above. Thirty μg/mL of PMBN had no effect on bacterial growth. The MICs were read and defined as above. All animal procedures were performed by the contract research organization Pharmacology Discovery Services Taiwan in accordance with the Guide for the Care and Use of Laboratory Animals. The procedures were approved by the Institutional Ethics Committee of Pharmacology Discovery Services Taiwan, Ltd. (approval no. AB127662), in compliance with animal welfare legislation in Taiwan.

[3] = tested on: S. epidermidis; assay: MIC (microbroth dilution); type: cell-based, Staphylococcus epidermidis; conditions: SE378
Description: as §1

[4] = tested on: S. haemolyticus; assay: MIC (microbroth dilution); type: cell-based, Staphylococcus haemolyticus; conditions: SH324
Description: as §2

[5] = tested on: Acinetobacter baumannii; assay: MIC (microbroth dilution); type: cell-based
Description: as §2

[6] = tested on: Pseudomonas aeruginosa; assay: MIC (microbroth dilution); type: cell-based
Description: as §2

[7] = tested on: K. pneumoniae; assay: MIC (microbroth dilution); type: cell-based, Klebsiella pneumoniae
Description: as §1

[8] = target: T1, GyrA S84L mutant DNA gyrase (Staphylococcus aureus, UniProt P0A0K8+P20831, S84L); assay: DNA gyrase supercoiling inhibition assay; type: biochemical, S. aureus; conditions: S84L mutant enzyme; read-out: IC50 (converted)
T1 construct: purchased Inspiralis Ltd. (Norwich, UK)
Description: (§3) Gyrase inhibition was determined through biochemical assay kits from Inspiralis Ltd. (Norwich, UK), according to manufacturer’s instructions, and as described previously. Briefly, 1U of enzyme was incubated with 0.5 μg of relaxed […] DNA in the presence of compound in 1% DMSO for 30 min at 37 °C. A control reaction contained no compound but still contained 1% DMSO. The reactions were stopped through Stop Buffer addition and the DNA separated through addition of chloroform/iso-amyl alcohol (24;1). Samples were run on a 1% agarose gel at 75 V for 2 h, which was then stained with 1 μg/mL ethidium bromide and visualized using a NuGenius gel imager (Syngene). The intensity of the supercoiled DNA band was quantified using Syngene software, and the inhibition of the supercoiling of the DNA by the compounds was calculated.

[9] = target: T2, WT DNA gyrase (Staphylococcus aureus, UniProt P0A0K8+P20831); assay: DNA gyrase supercoiling inhibition assay; type: biochemical, S. aureus; conditions: WT enzyme; read-out: IC50 (converted)
T2 construct: purchased Inspiralis Ltd. (Norwich, UK)
Description: as §3

[10] = tested on: S. aureus NCTC 13616; assay: Time-kill assay; type: cell-based; conditions: 4x MIC, 24 hours
Description: Time-kill assays were performed as defined previously.

[11] = tested on: S. aureus; assay: Serial passaging, MIC of adapted strains; type: cell-based
Description: MICs were performed on the first and 10th passage.

[12] = Kinetic aqueous solubility; type: physicochemical; conditions: phosphate-buffered saline with 2% DMSO, pH 7.4, aqueous buffer, kinetic from dmso stock
Description: Kinetic aqueous solubility was determined using a standard LC-UV/MS-based assay. Test compounds were prepared from 10 mM DMSO stock solutions and diluted to a nominal concentration of 200 μM in phosphate-buffered saline (PBS, pH 7.4) containing 2% DMSO. Parallel dilutions in DMSO were used as reference standards. Samples were equilibrated at room temperature for 2 h with shaking, then filtered, and the filtrates were analyzed by LC-UV with mass spectrometric confirmation of the analyte peak. Solubility was determined by comparing the UV peak area of the PBS filtrate with those of the DMSO reference standards. The effective range of the assay was 10–200 μM.

[13] = Plasma protein binding (RED); type: in vitro ADME; conditions: pH 7.4
Description: Plasma protein binding was measured using a Rapid Equilibrium Dialysis (RED) assay. Test compounds and control compounds were added to plasma at 10 μM and dialyzed against phosphate-buffered saline (PBS, pH 7.4) for 4 h at 37 °C. […] The percentage of drug bound to plasma proteins was calculated by comparing the analyte response in the plasma compartment with that in the buffer compartment.

[14] = tested on: NorA overexpressing strain NCTC 13616; assay: Reserpine growth (efflux inhibition) assay; conditions: for AUC of growth curve: biological replicates 1-3, listed as ML-77-005
Description: Statistical analyses were performed with GraphPad Prism V9.5.0. […] Unpaired t tests were used when comparing two samples in the gyrase assays.

**Q.** Which MIC ([1]; EF602) does the source give for `O=C(O)c1cn(C2CC2)c2cc(N3CCN(Cc4cccc5ccccc45)CC3)c(F)cc2c1=O` [Compound 8, 1-Cyclopropyl-6-fluoro-7-(4-(naphthalen-1-ylmethyl)piperazin-1-yl)-4-oxo-1,4-dihydroquinoline-3-carboxylic acid] here?
**A.** The MIC was 2 µg/mL (≈ 4.24 µM).

**Q.** And the MIC ([1]; Enterococcus faecalis, NCTC775, NCTC 775, read-out: MIC)?
**A.** Its MIC is 2 µg/mL (≈ 4.24 µM).

**Q.** What about the MIC ([1]; Enterococcus faecalis, NCTC12201, NCTC 12201, read-out: MIC) of the same compound?
**A.** The MIC was 0.125 µg/mL (≈ 0.265 µM).

**Q.** What about the MIC ([1]; Enterococcus faecalis, NCTC12204, NCTC 12204, read-out: MIC) of the same compound?
**A.** Its MIC is 2 µg/mL (≈ 4.24 µM).

**Q.** What about the MIC ([1]; NCTC 775) of the same compound?
**A.** The MIC was 2 µg/mL (≈ 4.24 µM).

**Q.** What about the MIC ([1]; NCTC 12201) of the same compound?
**A.** The MIC was 0.5 µg/mL (≈ 1.06 µM).

**Q.** And the MIC ([2]; EF205)?
**A.** The MIC was 2 µg/mL (≈ 4.24 µM).

**Q.** What about the MIC ([2]; NCTC 12204) of the same compound?
**A.** The MIC was 2 µg/mL (≈ 4.24 µM).

**Q.** What about the MIC [3] of the same compound?
**A.** Its MIC is 0.25 to 2 µg/mL.

**Q.** What about the MIC [4] of the same compound?
**A.** Its MIC is 4 µg/mL (≈ 8.48 µM).

**Q.** What about the MIC ([5]; ATCC 17978, +PMBN) of the same compound?
**A.** The MIC was 0.125 µg/mL (≈ 0.265 µM).

**Q.** What about the MIC ([5]; AYE, +PMBN) of the same compound?
**A.** The MIC was 32 µg/mL (≈ 67.9 µM).

**Q.** And the MIC ([5]; Acinetobacter baumannii, ATCC17978, ATCC 17978, read-out: MIC)?
**A.** The MIC was 4 µg/mL (≈ 8.48 µM).

**Q.** What about the MIC ([5]; Acinetobacter baumannii, BAA1710, BAA-1710 (AYE), read-out: MIC) of the same compound?
**A.** The MIC was > 128 µg/mL.

**Q.** What about the MIC ([6]; NCTC 13437) of the same compound?
**A.** Its MIC is 128 µg/mL (≈ 271 µM).

**Q.** What about the MIC ([6]; NCTC 13437, +PMBN) of the same compound?
**A.** Its MIC is 32 µg/mL (≈ 67.9 µM).

**Q.** What about the MIC ([6]; PAO1, + PMBN) of the same compound?
**A.** The MIC was 0.125 µg/mL.

**Q.** And the MIC ([6]; Pseudomonas aeruginosa, PAO1, read-out: MIC)?
**A.** The MIC was > 128 µg/mL.

**Q.** What about the MIC ([7]; Klebsiella pneumoniae, M6, read-out: MIC) of the same compound?
**A.** Its MIC is 32 to 64 µg/mL (≈ 67.9 to 136 µM).

**Q.** What about the MIC ([7]; Klebsiella pneumoniae, NCTC13368) of the same compound?
**A.** Its MIC is > 128 µg/mL.

**Q.** What about the MIC ([7]; M6, +PMBN, in µg/mL) of the same compound?
**A.** The MIC was 0.5.

**Q.** And the MIC ([7]; NCTC 13368, +PMBN, in µg/mL)?
**A.** Its MIC is 1-2.

**Q.** What about the IC50 [8] of the same compound?
**A.** The IC50 was 94.9 µM.

**Q.** What about the IC50 [9] of the same compound?
**A.** Its IC50 is > 271 µM.

**Q.** What about the time-kill profile [10] of the same compound?
**A.** The time-kill profile was “comparable bacteriostatic profiles”.

**Q.** What about the MIC ([11]; ATCC 9144 4x (passaged with Compound 8)) of the same compound?
**A.** The MIC was 2 µg/mL.

**Q.** What about the MIC ([11]; ATCC 9144 WT) of the same compound?
**A.** The MIC was 0.5 µg/mL.

**Q.** And the MIC ([11]; NCTC 13616 4x (passaged with Compound 8))?
**A.** Its MIC is 4 µg/mL.

**Q.** And the MIC ([11]; NCTC 13616 WT)?
**A.** Its MIC is 2 µg/mL.

**Q.** What about the solubility at 2 h [12] of the same compound?
**A.** The solubility at 2 h was < 5 µM.

**Q.** What about the fraction unbound at 4 h, 10 μM [13] of the same compound?
**A.** Its fraction unbound at 4 h, 10 μM is < 0.01.

**Q.** What about the “AUC of growth curve” value ([14]; 0.25 MIC + R (reserpine)) of the same compound?
**A.** Its value is 3.096 and 3.206 and 1.480.

**Q.** And the “AUC of growth curve” value ([14]; 0.25 MIC)?
**A.** Its value is 3.117 and 3.088 and 3.115.

**Q.** What about the “AUC of growth curve” value ([14]; 0.5 MIC + R (reserpine)) of the same compound?
**A.** The value was 3.021 and 2.572 and 0.9525.

**Q.** And the “AUC of growth curve” value ([14]; 0.5 MIC)?
**A.** Its value is 1.068 and 2.766 and 2.838.

**Q.** What about the “efflux liability in reserpine assay” value ([14]; 0.5x MIC with vs without reserpine) of the same compound?
**A.** The value was “not a substrate of NorA”.
